{
  "source": "patent US20070276025A1",
  "about": "“Indirubin-Type Compounds, Compositions, and Methods for Their Use” (priority 2003, published 2007)",
  "key": {"AhR [1]": {"target": "T1, AhR (Mus musculus, UniProt P30561)", "T1 sequence (P30561 1-848)": "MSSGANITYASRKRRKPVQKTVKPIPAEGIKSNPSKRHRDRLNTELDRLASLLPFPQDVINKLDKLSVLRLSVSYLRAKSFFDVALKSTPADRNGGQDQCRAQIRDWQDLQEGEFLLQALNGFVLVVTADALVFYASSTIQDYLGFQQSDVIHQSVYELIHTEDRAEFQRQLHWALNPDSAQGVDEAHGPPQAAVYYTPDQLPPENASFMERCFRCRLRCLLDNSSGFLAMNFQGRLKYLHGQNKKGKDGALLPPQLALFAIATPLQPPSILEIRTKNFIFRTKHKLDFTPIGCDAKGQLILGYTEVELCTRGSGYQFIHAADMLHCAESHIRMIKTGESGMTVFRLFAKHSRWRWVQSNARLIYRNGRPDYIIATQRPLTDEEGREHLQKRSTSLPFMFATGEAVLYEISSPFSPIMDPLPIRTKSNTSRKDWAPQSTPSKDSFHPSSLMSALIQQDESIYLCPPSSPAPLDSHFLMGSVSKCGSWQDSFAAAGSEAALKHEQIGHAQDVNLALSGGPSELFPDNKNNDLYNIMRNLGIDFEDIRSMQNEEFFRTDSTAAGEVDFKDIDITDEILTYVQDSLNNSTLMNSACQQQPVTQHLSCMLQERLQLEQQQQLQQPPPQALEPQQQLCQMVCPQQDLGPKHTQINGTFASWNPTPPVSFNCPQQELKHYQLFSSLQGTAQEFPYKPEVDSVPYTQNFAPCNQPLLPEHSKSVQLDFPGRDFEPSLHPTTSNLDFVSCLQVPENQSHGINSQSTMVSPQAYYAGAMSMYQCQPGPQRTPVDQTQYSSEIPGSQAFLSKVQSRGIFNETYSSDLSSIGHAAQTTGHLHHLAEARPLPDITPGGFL", "conditions": "read-out: EC50 AhR (hepatoma cell line); Table 4; EGFP at 24 hours"}, "[2]": {"experiment": "Solubility (qualitative remark)", "conditions": "relative to parent indirubins / 3′-oximes"}, "AhR [3]": {"target": "AhR (Homo sapiens, UniProt P35869)", "sequence (P35869 11-848)": "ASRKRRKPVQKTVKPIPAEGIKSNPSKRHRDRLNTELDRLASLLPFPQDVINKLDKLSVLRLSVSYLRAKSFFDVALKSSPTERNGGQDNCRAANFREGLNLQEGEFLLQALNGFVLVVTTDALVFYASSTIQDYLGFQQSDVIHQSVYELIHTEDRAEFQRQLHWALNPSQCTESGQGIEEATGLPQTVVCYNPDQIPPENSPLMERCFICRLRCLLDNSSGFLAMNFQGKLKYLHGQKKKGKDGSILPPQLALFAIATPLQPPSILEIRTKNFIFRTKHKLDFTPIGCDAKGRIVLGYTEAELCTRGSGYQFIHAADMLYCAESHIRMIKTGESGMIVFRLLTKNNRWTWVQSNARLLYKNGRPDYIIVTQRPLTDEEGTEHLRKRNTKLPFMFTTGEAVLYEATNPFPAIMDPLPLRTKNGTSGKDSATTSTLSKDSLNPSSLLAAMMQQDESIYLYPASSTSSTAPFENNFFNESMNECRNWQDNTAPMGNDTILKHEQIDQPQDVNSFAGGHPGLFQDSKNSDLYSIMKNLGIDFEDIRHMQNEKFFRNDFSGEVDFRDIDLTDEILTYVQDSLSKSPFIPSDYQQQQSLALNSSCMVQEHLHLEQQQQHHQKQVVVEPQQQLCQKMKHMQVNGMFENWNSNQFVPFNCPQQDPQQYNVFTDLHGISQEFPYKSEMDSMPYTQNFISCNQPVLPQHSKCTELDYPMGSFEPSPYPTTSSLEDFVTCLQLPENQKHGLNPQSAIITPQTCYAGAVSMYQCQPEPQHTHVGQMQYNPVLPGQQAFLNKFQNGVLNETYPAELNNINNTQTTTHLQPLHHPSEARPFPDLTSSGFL", "sequence (P27540 whole entry partner)": "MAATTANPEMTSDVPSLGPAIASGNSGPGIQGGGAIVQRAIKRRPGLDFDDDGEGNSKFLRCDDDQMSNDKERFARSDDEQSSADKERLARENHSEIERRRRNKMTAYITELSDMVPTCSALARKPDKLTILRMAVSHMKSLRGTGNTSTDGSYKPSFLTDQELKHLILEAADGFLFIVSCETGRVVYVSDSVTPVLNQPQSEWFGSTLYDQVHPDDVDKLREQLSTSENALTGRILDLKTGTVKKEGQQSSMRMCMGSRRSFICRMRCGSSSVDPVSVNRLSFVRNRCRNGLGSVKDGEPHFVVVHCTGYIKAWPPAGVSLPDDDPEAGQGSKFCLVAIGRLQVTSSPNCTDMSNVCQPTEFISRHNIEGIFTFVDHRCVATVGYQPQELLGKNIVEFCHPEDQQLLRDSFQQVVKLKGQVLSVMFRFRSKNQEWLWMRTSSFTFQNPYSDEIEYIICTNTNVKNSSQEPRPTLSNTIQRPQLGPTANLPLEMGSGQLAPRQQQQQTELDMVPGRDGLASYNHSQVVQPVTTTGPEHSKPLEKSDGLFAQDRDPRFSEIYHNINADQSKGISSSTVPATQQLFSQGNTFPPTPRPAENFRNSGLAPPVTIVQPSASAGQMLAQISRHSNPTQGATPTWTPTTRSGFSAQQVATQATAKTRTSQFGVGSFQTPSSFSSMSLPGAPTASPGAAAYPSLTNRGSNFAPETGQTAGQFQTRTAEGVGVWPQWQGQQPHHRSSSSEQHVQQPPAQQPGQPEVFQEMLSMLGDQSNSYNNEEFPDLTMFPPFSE", "experiment": "Yeast AhR reporter assay (β-galactosidase)", "conditions": "read-out: EC50 AhR (yeast); Table 4; * = inactive at the indicated highest concentration tested"}, "CDK1/cyclin B": {"target": "CDK1/cyclin B", "experiment": "CDK1/cyclin B kinase assay (histone H1, 15 μM ATP)", "assay_type": "biochemical, starfish (Marthasterias glacialis)"}, "erk1": {"target": "erk1 (Homo sapiens, UniProt P27361)", "sequence (P27361 whole entry, species assumed)": "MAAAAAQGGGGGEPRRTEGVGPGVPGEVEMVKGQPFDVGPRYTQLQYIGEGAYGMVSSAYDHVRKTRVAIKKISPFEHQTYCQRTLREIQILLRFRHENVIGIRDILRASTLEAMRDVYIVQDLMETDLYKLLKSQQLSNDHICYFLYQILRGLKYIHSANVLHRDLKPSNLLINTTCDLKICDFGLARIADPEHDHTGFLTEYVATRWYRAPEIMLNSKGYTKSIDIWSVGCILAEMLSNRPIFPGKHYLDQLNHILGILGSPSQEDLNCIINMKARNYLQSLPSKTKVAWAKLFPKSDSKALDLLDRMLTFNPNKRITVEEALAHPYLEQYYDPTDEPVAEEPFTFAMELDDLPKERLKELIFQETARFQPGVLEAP", "experiment": "erk1 kinase assay", "conditions": "read-out: IC50 erk1; Table 2, 15 μM ATP"}, "erk2": {"target": "erk2 (Homo sapiens, UniProt P28482)", "experiment": "erk2 kinase assay", "conditions": "read-out: IC50 erk2; Table 2, 15 μM ATP"}, "MAPKK": {"target": "MAPKK", "experiment": "MAPKK kinase assay", "conditions": "read-out: IC50 MAPKK; Table 2, 15 μM ATP"}, "CDK5/p35": {"target": "CDK5/p35 (Homo sapiens, UniProt Q00535)", "experiment": "CDK5/p35 kinase assay", "conditions": "read-out: IC50 CDK5/p35; Table 2, 15 μM ATP"}, "casein kinase 2": {"target": "casein kinase 2", "experiment": "casein kinase 2 assay", "conditions": "read-out: IC50 casein kinase 2; Table 2, 15 μM ATP"}, "protein kinase C α": {"target": "protein kinase C α (Homo sapiens, UniProt P17252)", "experiment": "protein kinase C α assay", "conditions": "read-out: IC50 protein kinase C α; Table 2, 15 μM ATP"}, "protein kinase C δ": {"target": "protein kinase C δ (Homo sapiens, UniProt Q05655)", "experiment": "protein kinase C δ assay", "conditions": "read-out: IC50 protein kinase C δ; Table 2, 15 μM ATP"}, "protein kinase C η": {"target": "protein kinase C η (Homo sapiens, UniProt P24723)", "sequence (P24723 whole entry)": "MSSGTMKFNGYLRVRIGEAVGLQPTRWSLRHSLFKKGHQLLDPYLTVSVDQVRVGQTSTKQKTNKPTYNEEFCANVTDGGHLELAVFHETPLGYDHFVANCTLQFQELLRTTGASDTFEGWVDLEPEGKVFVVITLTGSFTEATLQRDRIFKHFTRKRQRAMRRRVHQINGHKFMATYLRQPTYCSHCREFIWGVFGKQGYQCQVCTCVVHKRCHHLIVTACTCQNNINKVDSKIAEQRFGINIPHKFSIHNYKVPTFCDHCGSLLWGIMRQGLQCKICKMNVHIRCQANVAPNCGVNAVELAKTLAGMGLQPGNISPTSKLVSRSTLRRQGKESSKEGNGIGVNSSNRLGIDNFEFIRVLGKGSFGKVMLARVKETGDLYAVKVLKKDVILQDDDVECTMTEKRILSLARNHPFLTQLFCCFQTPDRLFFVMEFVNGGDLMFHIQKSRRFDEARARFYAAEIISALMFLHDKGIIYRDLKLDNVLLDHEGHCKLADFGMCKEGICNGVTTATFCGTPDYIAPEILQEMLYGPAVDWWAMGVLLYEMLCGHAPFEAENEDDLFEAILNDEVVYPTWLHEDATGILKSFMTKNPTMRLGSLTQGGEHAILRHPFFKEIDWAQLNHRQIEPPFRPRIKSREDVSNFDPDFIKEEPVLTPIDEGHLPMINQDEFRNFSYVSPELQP", "experiment": "protein kinase C η assay", "conditions": "read-out: IC50 protein kinase C η; Table 2, 15 μM ATP"}, "protein kinase C ζ": {"target": "T2, protein kinase C ζ (Homo sapiens, UniProt Q05513)", "T2 sequence (Q05513 1-592)": "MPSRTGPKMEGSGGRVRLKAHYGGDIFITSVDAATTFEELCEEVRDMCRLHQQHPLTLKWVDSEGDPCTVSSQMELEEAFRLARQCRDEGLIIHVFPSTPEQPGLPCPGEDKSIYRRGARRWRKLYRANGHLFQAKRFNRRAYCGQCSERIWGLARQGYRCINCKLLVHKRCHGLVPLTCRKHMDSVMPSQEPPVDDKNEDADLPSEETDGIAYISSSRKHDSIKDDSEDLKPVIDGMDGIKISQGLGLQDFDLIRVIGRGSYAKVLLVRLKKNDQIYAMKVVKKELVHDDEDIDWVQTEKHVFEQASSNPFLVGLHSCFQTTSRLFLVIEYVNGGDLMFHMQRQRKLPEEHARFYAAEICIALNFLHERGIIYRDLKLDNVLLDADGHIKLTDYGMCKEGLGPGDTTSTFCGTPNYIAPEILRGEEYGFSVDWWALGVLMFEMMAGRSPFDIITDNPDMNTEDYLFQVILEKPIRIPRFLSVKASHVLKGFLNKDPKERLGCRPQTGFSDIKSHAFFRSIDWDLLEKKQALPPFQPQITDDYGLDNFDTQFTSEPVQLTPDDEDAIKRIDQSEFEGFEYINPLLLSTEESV", "experiment": "protein kinase C ζ assay", "conditions": "read-out: IC50 protein kinase C ζ; Table 2, 15 μM ATP"}, "protein kinase C β1": {"target": "protein kinase C β1 (Homo sapiens, UniProt P05771)", "sequence (P05771 whole entry)": "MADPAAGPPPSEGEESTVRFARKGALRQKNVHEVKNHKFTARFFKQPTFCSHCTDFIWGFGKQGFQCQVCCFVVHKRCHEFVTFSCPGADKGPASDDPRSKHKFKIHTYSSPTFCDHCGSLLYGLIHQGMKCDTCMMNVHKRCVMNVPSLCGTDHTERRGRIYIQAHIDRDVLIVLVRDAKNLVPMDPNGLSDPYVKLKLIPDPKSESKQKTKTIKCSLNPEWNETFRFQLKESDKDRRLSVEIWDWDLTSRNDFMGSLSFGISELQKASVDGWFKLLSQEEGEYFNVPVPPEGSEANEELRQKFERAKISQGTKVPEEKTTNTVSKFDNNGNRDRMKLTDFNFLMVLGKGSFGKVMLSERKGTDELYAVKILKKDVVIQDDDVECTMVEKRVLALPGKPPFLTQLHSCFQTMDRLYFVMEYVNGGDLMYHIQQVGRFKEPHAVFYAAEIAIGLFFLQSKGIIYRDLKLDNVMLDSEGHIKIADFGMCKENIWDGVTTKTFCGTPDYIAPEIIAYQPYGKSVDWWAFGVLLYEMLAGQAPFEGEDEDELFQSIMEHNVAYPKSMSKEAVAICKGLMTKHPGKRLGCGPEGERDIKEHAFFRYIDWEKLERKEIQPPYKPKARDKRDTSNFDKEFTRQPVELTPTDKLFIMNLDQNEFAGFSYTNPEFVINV", "experiment": "protein kinase C β1 assay", "conditions": "read-out: IC50 protein kinase C β1; Table 2, 15 μM ATP"}, "protein kinase C β2": {"target": "protein kinase C β2 (Homo sapiens, UniProt P05771)", "sequence (P05771 1-673 isoform P05771-2)": "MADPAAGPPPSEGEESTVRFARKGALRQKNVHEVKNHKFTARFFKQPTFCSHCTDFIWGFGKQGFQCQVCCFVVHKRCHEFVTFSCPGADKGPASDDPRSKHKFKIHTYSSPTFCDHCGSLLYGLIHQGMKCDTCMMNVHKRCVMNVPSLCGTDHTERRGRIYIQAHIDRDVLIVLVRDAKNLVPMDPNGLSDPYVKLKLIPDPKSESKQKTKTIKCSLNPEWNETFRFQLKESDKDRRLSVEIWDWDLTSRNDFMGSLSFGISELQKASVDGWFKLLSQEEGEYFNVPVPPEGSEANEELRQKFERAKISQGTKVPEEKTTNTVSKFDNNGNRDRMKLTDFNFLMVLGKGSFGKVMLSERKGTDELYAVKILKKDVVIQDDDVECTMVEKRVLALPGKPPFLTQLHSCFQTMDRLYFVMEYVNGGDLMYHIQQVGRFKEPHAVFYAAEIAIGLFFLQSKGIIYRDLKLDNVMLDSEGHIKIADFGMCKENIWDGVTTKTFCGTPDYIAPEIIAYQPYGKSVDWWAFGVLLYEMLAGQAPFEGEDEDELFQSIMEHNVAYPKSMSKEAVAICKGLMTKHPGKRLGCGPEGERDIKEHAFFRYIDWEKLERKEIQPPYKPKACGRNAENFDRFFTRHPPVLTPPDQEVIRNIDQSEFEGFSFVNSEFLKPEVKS", "experiment": "protein kinase C β2 assay", "conditions": "read-out: IC50 protein kinase C β2; Table 2, 15 μM ATP"}, "[4]": {"target": "insulin receptor Tyr kinase", "experiment": "insulin receptor Tyr kinase assay", "conditions": "read-out: IC50 insulin receptor Tyr kinase; Table 2, 15 μM ATP"}, "[5]": {"conditions": "Table 1, read-out: IC50 CDK1/cyclin B"}, "[6]": {"conditions": "Table 2, 15 μM ATP, read-out: IC50 CDK1/cyclin B"}, "[7]": {"conditions": "Table 4, read-out: IC50 CDK1/cycin B"}, "[8]": {"conditions": "Table 5, read-out: IC50 CDK1/cyclin B"}},
  "note": "Like-named read-outs stand apart in the source and are kept apart here.",
  "data": [
    {"smiles": "O=C1Nc2ccccc2/C1=C1/Nc2ccccc2/C1=N\\O", "note": "[7h, indirubin-3′-oxime]", "values": [
      {"measurement": "EC50", "setting": "AhR [1]", "value": 0.72, "unit": "µM"},
      {"measurement": "solubility (in words)", "setting": "[2]", "value": "increased solubility"},
      {"measurement": "EC50", "setting": "AhR [3]", "value": 0.025, "unit": "µM"}
    ]},
    {"smiles": "CC(=O)ON=C1C(=C2C(=O)Nc3cc(Br)ccc32)Nc2ccccc21", "note": "[8a, 6-Bromoindirubin-3′-acetoxime]", "values": [
      {"measurement": "IC50", "setting": "CDK1/cyclin B; [5]", "value": 63, "unit": "µM"},
      {"measurement": "IC50", "setting": "CDK1/cyclin B; [6]", "value": 63, "unit": "µM"},
      {"measurement": "IC50", "setting": "CDK1/cyclin B; [7]", "value": 63, "unit": "µM"},
      {"measurement": "IC50", "setting": "CDK1/cyclin B; [8]", "value": 63, "unit": "µM"},
      {"measurement": "EC50", "setting": "AhR [1]", "value": 0.16, "unit": "µM"},
      {"measurement": "IC50", "setting": "erk1", "value": "> 10", "unit": "µM"},
      {"measurement": "IC50", "setting": "erk2", "value": "> 10", "unit": "µM"},
      {"measurement": "IC50", "setting": "MAPKK", "value": "> 10", "unit": "µM"},
      {"measurement": "IC50", "setting": "CDK5/p35", "value": 2.4, "unit": "µM"},
      {"measurement": "IC50", "setting": "casein kinase 2", "value": "> 10", "unit": "µM"},
      {"measurement": "IC50", "setting": "protein kinase C α", "value": "> 10", "unit": "µM"},
      {"measurement": "IC50", "setting": "protein kinase C δ", "value": "> 10", "unit": "µM"},
      {"measurement": "IC50", "setting": "protein kinase C η", "value": "> 10", "unit": "µM"},
      {"measurement": "IC50", "setting": "protein kinase C ζ", "value": "> 10", "unit": "µM"},
      {"measurement": "IC50", "setting": "protein kinase C β1", "value": "> 10", "unit": "µM"},
      {"measurement": "IC50", "setting": "protein kinase C β2", "value": "> 10", "unit": "µM"},
      {"measurement": "solubility (in words)", "setting": "[2]", "value": "less soluble"},
      {"measurement": "IC50", "setting": "[4]", "value": "> 10", "unit": "µM"}
    ]},
    {"smiles": "CON=C1C(=C2C(=O)Nc3cc(Br)ccc32)Nc2ccccc21", "note": "[9a, 6-Bromoindirubin-3′-methoxime]", "values": [
      {"measurement": "IC50", "setting": "CDK1/cyclin B; [5]", "value": 3.4, "unit": "µM"},
      {"measurement": "IC50", "setting": "CDK1/cyclin B; [6]", "value": 3.4, "unit": "µM"},
      {"measurement": "IC50", "setting": "CDK1/cyclin B; [7]", "value": 3.4, "unit": "µM"},
      {"measurement": "IC50", "setting": "CDK1/cyclin B; [8]", "value": 3.7, "unit": "µM"},
      {"measurement": "EC50", "setting": "AhR [1]", "value": 0.03, "unit": "µM"},
      {"measurement": "IC50", "setting": "erk1", "value": "> 10", "unit": "µM"},
      {"measurement": "IC50", "setting": "erk2", "value": "> 10", "unit": "µM"},
      {"measurement": "IC50", "setting": "MAPKK", "value": "> 10", "unit": "µM"},
      {"measurement": "IC50", "setting": "CDK5/p35", "value": 2.2, "unit": "µM"},
      {"measurement": "IC50", "setting": "casein kinase 2", "value": 9, "unit": "µM"},
      {"measurement": "IC50", "setting": "protein kinase C α", "value": "> 10", "unit": "µM"},
      {"measurement": "IC50", "setting": "protein kinase C δ", "value": "> 10", "unit": "µM"},
      {"measurement": "IC50", "setting": "protein kinase C η", "value": "> 10", "unit": "µM"},
      {"measurement": "IC50", "setting": "protein kinase C ζ", "value": "> 10", "unit": "µM"},
      {"measurement": "IC50", "setting": "protein kinase C β1", "value": "> 10", "unit": "µM"},
      {"measurement": "IC50", "setting": "protein kinase C β2", "value": "> 10", "unit": "µM"},
      {"measurement": "solubility (in words)", "setting": "[2]", "value": "less soluble"},
      {"measurement": "IC50", "setting": "[4]", "value": "> 10", "unit": "µM"},
      {"measurement": "EC50", "setting": "AhR [3]", "value": "> 0.1", "unit": "µM"}
    ]}
  ]
}
